Legend:
Format in all cases: cell-based, murine
iNOS [1] = test: iNOS protein immunoblot, LPS-stimulated N9 microglia
From the text: (§1) TNL was a generous gift of Kissei Pharmaceuticals, LPC (Escherichia coli, 0127:BS), phorbol 12-myristate 13-acetate (PMA) and dexamethasone (DEX) were obtained from Sigma, BAY 11-7082 (BAY), NF-κB SN50 inhibitory peptide (SN50), GF 109203X (GFX) and rottlerin (ROT) were purchased from Biomol. PD098059 (PD) was obtained from Calbiochem. Purified murine interferon-γ (IFN-γ) was purchased from Roche Diagnostics. N9 murine microglial cells were a kind gift from P. Ricciardi-Castagnoli (Righi, M. et al. 1989 supra). Cells were cultured in Dulbecco's modified Eagle's medium (DMEM) supplemented with 10% fetal calf serum (FCS), 2 mM glutamine, penicillin (100 unit/mL) and streptomycin (100 μg/mL) and maintained at 37° in an atmosphere of 5% CO2. Viability was assessed by crystal violet staining.
For the preparation of whole cell lysates, the cells were lysed in 0.1 M Tris-HCl (pH 7.2) containing 0.1% NP40, 0.1 mM EDTA and 5 μg/mL phenylmethylsulphonyl fluoride. Twenty micrograms protein was separated by 10-12% SDS-PAGE and electroblotted on nitrocellulose membrane. Equal loading was controlled by Ponceau S staining. Immunodetection was performed using the following antibodies: anti-iNOS rabbit polyclonal antibody (1:1000, Cayman), antiphospho-IκBα mouse monoclonal antibody (1:1000), anti-PKCδ mouse monoclonal antibody (1:2000), antiphospho-MARCKS rabbit polyclonal antibody (1:1000), antiphospho-ERK-1/2, antiphospho-AKT, antiphospho-p38 mouse monoclonal antibodies (1:2000), anti-ERK-1/2, anti-AKT mouse monoclonal antibodies (1:500, all from Signal Transduction Laboratories). Bands were visualized using horseradish peroxidase-conjugated anti-rabbit IgG (1:4000 SantaCruz) or anti-mouse IgG (1:4000, Amersham).

iNOS [2] = test: iNOS activity by Griess assay (nitrite formation), LPS-stimulated N9 microglia; conditions: N9 cells
From the text: as §1
iNOS activity was assessed by the Griess assay (Platten, M., Wick, W., Wischhusen, J. and Weller, M. Br J Pharmacol 134(6):1279-1284, 2001). Briefly, conditioned supernatant was incubated with an equal volume of Griess reagent containing 1% sulphanilamide, 0.1% naphthylethylenediamine dihydrochloride and 2.5% H3PO4 (Green, L. C., Wagner, D. A., Glogowski, J., Skipper, P. I., Wishnok, J. S, and Tannenbaum, S. R. Anal. Biochem., 126:131-138, 1982) for 5 min. at room temperature. The absorbance was measured at 546 nm. NaNO2 diluted in DMEM served as a standard. To control for cell number, the cells were stained with crystal violet. iNOS activity is expressed as nitrite accumulated in 48 hr/10^5 cells.

PKCδ = PKCδ immunoblot after long-term PMA in N9 microglia; conditions: N9 cells, PMA 100 nM, 24 hr treatment, data not shown
From the text: as §1
(§2) For the preparation of whole cell lysates, the cells were lysed in 0.1 M Tris-HCl (pH 7.2) containing 0.1% NP40, 0.1 mM EDTA and 5 μg/mL phenylmethylsulphonyl fluoride. Twenty micrograms protein was separated by 10-12% SDS-PAGE and electroblotted on nitrocellulose membrane. Equal loading was controlled by Ponceau S staining. […]

ERK-1/2 = test: phospho-ERK-1/2 immunoblot after PKC depletion, LPS-stimulated N9 microglia; conditions: N9 cells, prolonged pretreatment with PMA 100 nM 24 hr, then LPS 10 μg/mL
From the text: as §1, §2

iNOS [3] = test: iNOS activity by Griess assay (NO2 release), IFN-γ-stimulated N9 microglia; conditions: N9 cells, IFN-γ 200 u ml, 48 h, dexamethasone 500 nM
Procedure: Tranilast was a generous gift of Kissei Pharmaceuticals (Nagano, Japan). Murine recombinant IFN-γ was purchased from Boehringer (Mannheim, Germany). Dexamethasone (DEX) was obtained from Sigma (Deisenhofen, Germany). N9 murine microglial cells were a kind gift from P. Ricciardi-Castagnoli (Milano, Italy) (Righi, M., Mori, L., De Libero, G., Sironi, M., Biondi, A., Mantovani, A., Donini, S. D. and Ricciardi-Castagnoli, P. Eur J Immunol 19(8):1443-1448, 1989). The cells were cultured in Dulbecco's modified Eagle's medium (DMEM) supplemented with 10% foetal calf serum (FCS), 2 mM glutamine and penicillin ([…])/streptomycin (100 μg ml), and maintained at 37° C. in an atmosphere of 5% CO2. Viability was assessed by crystal violet staining.
iNOS activity was assessed by the Griess assay as described elsewhere (Rieger, J., Stander, M., Loschmann, P. A., Heneka, M., Dichgans, J., Klockgether, T. and Weller, M., Oncogene, 17:2323-2332, 1998). Briefly, conditioned supernatant (100 μl) was incubated with an equal volume of 1% sulphanilamide/0.1% naphthyl ethylene diamine dihydrochloride/2.5% H3PO4 (Griess reagent) (Green, L. C., Wagner, D. A., Glogowski, J., Skipper, P. I., Wishnok, J. S, and Tannenbaum, S. R., Anal. Biochem., 126:131-138, 1982), incubated for 5 min at room temperature, and the absorbance at […] determined. Solutions of NaNO2 diluted in DMEM served as standards. The absorbance readings resulting from DMEM alone were subtracted from the sample values. Cell density was assessed using crystal violet staining to control for differences in cell proliferation. iNOS activity is thus expressed here as NO2 accumulated per 48 h per 10^5 cells.

CCCCCCCCCCCCCC(=O)O[C@@H]1[C@@H](C)[C@@]2(O)[C@@H](C=C(CO)C[C@]3(O)C(=O)C(C)=C[C@@H]23)[C@@H]2C(C)(C)[C@]12OC(C)=O [PMA, phorbol 12-myristate 13-acetate]
reduction of iNOS protein (densitometry) (iNOS [1]; N9 cells, 24-hr exposure to PMA 100 nM, then LPS 10 μg/mL for 24 hr): 80%
LPS-mediated iNOS protein expression (iNOS [1]; N9 cells, PMA 100 nM pretreatment 15 min, LPS 10 μg/mL, 24 hr): superinduction
iNOS protein expression in the absence of LPS (iNOS [1]; N9 cells, PMA 100 nM, no LPS): did not induce
LPS-mediated nitrite formation (iNOS [2]; PMA 100 nM pretreatment 15 min, LPS 10 μg/mL, 48 hr): superinduction
PKCδ protein level (PKCδ): effectively depleted
LPS-induced ERK-1/2 phosphorylation (ERK-1/2): failed to induce

COc1cccc(-c2cc(=O)c3ccccc3o2)c1N [PD]
LPS-mediated nitrite formation (iNOS [2]; LPS, 40 μM PD, vehicle-treated cells 16.6±0.3): 10.7±0.4 μM/10^4 cells/48 hr

Cc1ccc(S(=O)(=O)/C=C/C#N)cc1 [BAY]
LPS-stimulated NO release (iNOS [2]; LPS, BAY 20 μM, vehicle-treated cells 14.6±1.0): 11.1±0.7 μM/10^4 cells/48 hr

CC(=O)c1c(O)c(C)c(O)c(Cc2c(O)c3c(c(C(=O)/C=C/c4ccccc4)c2O)OC(C)(C)C=C3)c1O [ROT, rottlerin]
iNOS protein accumulation after LPS (iNOS [1]; N9 cells, LPS 10 μg/mL 24 hr, ROT at concentrations as low as 5 μM): strongly inhibited

CN(C)CCCn1cc(C2=C(c3c[nH]c4ccccc34)C(=O)NC2=O)c2ccccc21 [GFX]
PMA superinduction of iNOS protein in LPS-stimulated cells (iNOS [1]; PMA 100 nM 15 min, LPS 10 μg/mL 24 hr, GFX 2 μM): abolished

C[C@@H]1C[C@H]2[C@@H]3CCC4=CC(=O)C=C[C@]4(C)[C@@]3(F)[C@@H](O)C[C@]2(C)[C@@]1(O)C(=O)CO [dexamethasone]
reduction of the amount of NO2 (Griess assay) (iNOS [3]): 75%

— patent publication US7531575B2, “Method of modulating cellular activity and agents useful for same” (Eberhard-Karls-Universität Tübingin, priority 2002, dated 2009)
